According to US7541364B2, “Pyridomorphinans, pyridazinomorphinans and use thereof” (priority 2003, dated 2009):
Structures can show the parent of a compound that is named as a salt.

Columns and labels:
μ receptor [1] = target: T1, μ receptor (Cavia porcellus, UniProt A0ACM8Q262); conditions: for EC50: read-out: agonist activity EC50 (nM ± SD) μ, δ and κ sites blocked with TIPP (1 μM) and nor-BNI (6 nM); for Ki: read-out: antagonist activity apparent Ki (nM ± SD) μ, inhibition of DAMGO (10 μM) stimulated [35S]GTP-γ-S binding
T1 sequence (A0ACM8Q262 1-400): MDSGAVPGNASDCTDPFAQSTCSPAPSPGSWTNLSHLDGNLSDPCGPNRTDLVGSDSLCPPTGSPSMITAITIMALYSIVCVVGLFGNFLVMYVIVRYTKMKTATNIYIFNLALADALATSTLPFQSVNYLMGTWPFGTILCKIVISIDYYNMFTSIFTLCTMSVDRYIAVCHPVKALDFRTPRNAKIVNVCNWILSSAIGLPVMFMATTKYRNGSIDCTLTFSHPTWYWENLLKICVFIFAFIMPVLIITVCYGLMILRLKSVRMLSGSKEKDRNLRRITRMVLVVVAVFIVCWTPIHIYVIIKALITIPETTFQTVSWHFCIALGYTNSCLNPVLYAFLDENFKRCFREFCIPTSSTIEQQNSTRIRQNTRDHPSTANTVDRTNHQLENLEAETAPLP

μ receptor [2] = target: T1, μ receptor; assay: biochemical; design: dose or concentration left out as unconfirmed; conditions: read-out: agonist activity Emax % μ
opioid δ receptor = target: T2, opioid δ receptor (Rattus norvegicus, UniProt P33533); assay: Opioid δ receptor binding, [3H]DADLE displacement in rat brain membranes; conditions: for Ki: displacement of [3H]DADLE (1.3-2.0 nM), rat brain membranes, 100 nM DAMGO to block μ sites, read-out: Ki (nM) ± SEM δ
T2 construct: Rat membranes are prepared each day using a partially thawed frozen rat brain; from tissue; host or cells: rat brain membranes
T2 sequence (P33533 whole entry): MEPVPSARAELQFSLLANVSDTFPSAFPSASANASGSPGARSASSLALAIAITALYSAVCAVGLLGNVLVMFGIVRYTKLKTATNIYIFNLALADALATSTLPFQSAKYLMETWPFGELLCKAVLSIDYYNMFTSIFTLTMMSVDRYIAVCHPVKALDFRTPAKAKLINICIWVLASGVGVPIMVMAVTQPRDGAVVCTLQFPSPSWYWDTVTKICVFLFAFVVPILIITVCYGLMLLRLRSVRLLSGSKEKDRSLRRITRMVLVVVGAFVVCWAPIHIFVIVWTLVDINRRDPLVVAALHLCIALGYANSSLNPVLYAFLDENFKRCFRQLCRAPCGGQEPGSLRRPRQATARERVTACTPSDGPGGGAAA

δ receptor [3] = target: T3, δ receptor (Cavia porcellus, UniProt A0A286XTF2); assay: biochemical; design: Emax: dose or concentration left out as unconfirmed
T3 sequence (A0A286XTF2 1-366): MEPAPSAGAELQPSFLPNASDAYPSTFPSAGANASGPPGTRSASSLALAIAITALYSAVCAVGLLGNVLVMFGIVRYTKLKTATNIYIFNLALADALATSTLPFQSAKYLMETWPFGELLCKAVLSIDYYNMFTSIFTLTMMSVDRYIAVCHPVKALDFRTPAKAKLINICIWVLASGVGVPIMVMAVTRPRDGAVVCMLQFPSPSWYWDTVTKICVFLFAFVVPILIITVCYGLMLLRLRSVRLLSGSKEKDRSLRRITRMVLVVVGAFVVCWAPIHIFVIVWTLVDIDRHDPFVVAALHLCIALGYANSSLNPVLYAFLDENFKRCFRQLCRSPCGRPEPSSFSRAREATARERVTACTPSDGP

opioid μ receptor = opioid μ receptor (Rattus norvegicus, UniProt P33535); conditions: for selectivity ratio μ/δ: ratio of binding Ki values; for Ki: read-out: Ki (nM) ± SEM μ, displacement of [3H]DAMGO (1.4-3.0 nM), rat brain membranes
Chain of opioid μ receptor (P33535 whole entry): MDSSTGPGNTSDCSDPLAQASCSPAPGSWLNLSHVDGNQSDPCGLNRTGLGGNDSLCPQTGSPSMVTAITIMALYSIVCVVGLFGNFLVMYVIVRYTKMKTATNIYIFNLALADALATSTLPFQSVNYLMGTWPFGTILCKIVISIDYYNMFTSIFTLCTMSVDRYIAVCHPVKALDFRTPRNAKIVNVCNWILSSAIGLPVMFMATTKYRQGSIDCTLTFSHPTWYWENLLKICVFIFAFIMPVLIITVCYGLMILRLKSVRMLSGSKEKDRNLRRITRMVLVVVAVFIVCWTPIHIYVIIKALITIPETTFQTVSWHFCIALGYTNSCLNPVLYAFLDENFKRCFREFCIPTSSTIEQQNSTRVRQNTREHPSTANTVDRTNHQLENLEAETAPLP

mice = assay: 55° C. tail-flick antinociception test in mice; conditions: for naloxone sensitivity: naloxone 10 mg/kg ip, -10 min, yes = greater than 80% reduction in the antinociceptive effect; for A50: at time of peak drug effect
Protocol: Analgesic Testing and Assessment of Tolerance Development. The analgesic activity of selected ligands is tested in mice using the 55° C. tail-flick test as previously described. (See Wells et al., supra.) The test compounds are administered by the intracerbroventricular (icv) route. […] To determine whether the analgesic activity of the tested compounds is mediated through opioid receptors, the blockade of antinociceptive activity by pretreatment with naloxone is carried out. The analgesic activity was considered as naloxone sensitive if greater than 80% reduction in the antinociceptive response is observed.
Antinociceptive Studies. Male ICR mice (Harlan) are used for all evaluations. Mice are housed in a temperature and humidity controlled vivarium on a 12:12 h light:dark cycle with unlimited access to food and water prior to the formal procedures. […] The dihydrochloride salt of 7h is dissolved in water and injected in a volume of 5 μL. All other compounds are dissolved in 100% DMSO and injected in a volume of 5 μL. Antinociceptive assays are performed at various times after injection.
Percent antinociception is calculated using the formula: % MPE (maximal possible effect)=100×(test−control)/(cutoff−control) where control is the predrug observation, test is the postdrug observation, and cutoff is the maximal length of stimulus allowed (10 s for 55° C. tail-flick). Antinociceptive A50 values and 95% confidence intervals are determined using linear regression software (FlashCalc). Opioid activity of the test compounds are assessed by pretreating animals with naloxone (10 mg/kg ip, −10 min) followed by an icv injection of an approximate A90 dose of test compound. […] Antinociception is assessed in the 55° C. tail-flick test at 10, 20 and 30 min. A positive response to a fixed dose of naloxone is indicated when greater than 80% reduction in the antinociceptive effect of the agonist is observed.

[4] = target: T4, δ receptor (mouse vas deferens) (Mus musculus, UniProt P32300); assay: Mouse vas deferens (MVD) smooth muscle bioassay; conditions: for IC50: inhibition of electrically stimulated contractions, read-out: agonist activity MVD (δ) IC50
T4 sequence (P32300 whole entry): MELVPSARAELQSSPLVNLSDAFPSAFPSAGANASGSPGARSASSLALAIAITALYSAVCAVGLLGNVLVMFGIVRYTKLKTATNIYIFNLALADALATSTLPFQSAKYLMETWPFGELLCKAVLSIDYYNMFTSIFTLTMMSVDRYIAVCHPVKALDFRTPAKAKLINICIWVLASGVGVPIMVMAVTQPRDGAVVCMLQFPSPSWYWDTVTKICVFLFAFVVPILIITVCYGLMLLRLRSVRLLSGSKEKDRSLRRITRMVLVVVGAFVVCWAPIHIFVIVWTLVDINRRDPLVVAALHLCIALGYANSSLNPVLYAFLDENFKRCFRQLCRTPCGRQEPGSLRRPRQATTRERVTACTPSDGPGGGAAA
Protocol: (§1) Bioassays in Smooth Muscle Preparations. The functional activity profiles of selected ligands are also determined in the mouse vas deferens (MVD) and guinea pig ileum (GPI) smooth muscle preparations as described previously.
(§2) The agonist activity is determined by the ability of the compound to inhibit electrically stimulated contractions of the GPI and MVD. The GPI is primarily a μ receptor preparation, even though the ileum does also contain κ receptors. In the MVD, the opioid effects are predominantly mediated through δ receptors, but μ and κ receptors also exist in this tissue.
(§3) Tissues came from male ICR mice weighing 25-40 g and male Hartley guinea pigs weighing 250-500 g. The tissues are tied to gold chain with suture silk, suspended in 20 mL baths containing 37° C. oxygenated (95% O2, 5% CO2) Krebs bicarbonate solution (magnesium free for the MVD), and allowed to equilibrate for 15 min. The tissues are then stretched to optimal length previously determined to be 1 g tension (0.5 g for MVD) and allowed to equilibrate for 15 min. The tissues are stimulated transmurally between platinum wire electrodes at 0.1 Hz, 0.4 ms pulses (2-ms pulses for MVD), and supramaximal voltage. […] Tissues not producing typical results are not used. Experimental compounds were added to the baths in 14-60 μL volumes. Succeeding doses of agonist are added cumulatively to the bath at 3 min intervals to produce a concentration-response curve. The tissues are then washed extensively with fresh buffer until the original contraction height is reestablished. […] The tissues are then washed with fresh buffer for 30 min, and the agonist dose-response curve was repeated. Rightward shifts in the dose-response curves are calculated by dividing the antagonized dose-response curve IC50 value by the unantagonized IC50 value. IC50 values represent the mean of two to four tissues. IC50 estimates and their associated standard errors are determined by using a computerized nonlinear least-squares method. (MINSQ Least Squares Parameter Estimation, version 3.05; MicroMath Inc., 1999.)

opioid κ receptor = opioid κ receptor (Cavia porcellus, UniProt P41144); conditions: for selectivity ratio κ/δ: ratio of binding Ki values; for Ki: read-out: Ki (nM) ± SEM κ, displacement of [3H]U69,593 (1.2-[…]), guinea pig brain membranes
Chain of opioid κ receptor (P41144 whole entry): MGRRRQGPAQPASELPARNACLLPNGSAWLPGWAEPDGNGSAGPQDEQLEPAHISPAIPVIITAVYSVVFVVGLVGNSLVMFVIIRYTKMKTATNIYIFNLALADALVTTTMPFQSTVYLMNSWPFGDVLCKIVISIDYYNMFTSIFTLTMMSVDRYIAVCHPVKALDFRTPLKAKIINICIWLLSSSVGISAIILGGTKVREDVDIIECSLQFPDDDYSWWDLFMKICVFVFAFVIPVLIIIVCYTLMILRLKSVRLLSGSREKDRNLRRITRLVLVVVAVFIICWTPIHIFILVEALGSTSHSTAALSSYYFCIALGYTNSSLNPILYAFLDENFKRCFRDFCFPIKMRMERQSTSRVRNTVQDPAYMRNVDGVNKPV

δ receptor [5] = target: T3, δ receptor
[6] = target: T4, δ receptor (mouse vas deferens); assay: Mouse vas deferens (MVD) smooth muscle bioassay; design: from tissue; host or cells: mouse vas deferens (male ICR mice)
Protocol: as §1, §2, §3

κ receptor = κ receptor (Cavia porcellus, UniProt P41144); conditions: read-out: antagonist activity apparent Ki (nM ± SD) κ
Chain of κ receptor (P41144 whole entry): as above

Structure (SMILES) | Emax (μ receptor [2]) [%] | melting point | Ki (opioid δ receptor) [nM] | Ki (μ receptor [1]) [nM] | Ki (δ receptor [3]) [nM] | selectivity ratio μ/δ (opioid μ receptor) | Ki (opioid μ receptor) [nM] | naloxone sensitivity (mice) | selectivity ratio κ/δ (opioid κ receptor) | Ki (opioid κ receptor) [nM] | other results
C[C@@H](NC(=O)[C@@H](N)Cc1ccc(O)cc1)C(=O)NCC(=O)N(C)[C@@H](Cc1ccccc1)C(=O)NCCO [DAMGO, reference compound] | 100 | – | – | – | – | – | – | – | – | – | EC50 (μ receptor [1]): 414 nM
CN1CC[C@]23c4c5ccc(O)c4O[C@H]2c2ncc(-c4ccc(Cl)cc4)cc2C[C@H]3[C@H]1C5 (as salt: salt) [7h, 5′-(4-Chlorophenyl)-6,7-didehydro-4,5α-epoxy-3-hydroxy-17-methylpyrido[2′,3′:6,7]morphinan] | – | 276 to 278 °C (dec.) | – | – | – | – | – | – | – | – | –
CN1CC[C@]23c4c5ccc(O)c4O[C@H]2c2ncc(-c4ccccc4)cc2C[C@H]3[C@H]1C5 [7g, 6,7-Didehydro-4,5α-epoxy-3-hydroxy-17-methyl-5′-phenylpyrido[2′,3′:6,7]morphinan] | 60 | – | 1.9 ± 0.09 | > 1000 | > 1000 | 13 | 24 ± 2 | yes | 43 | 81 ± 5 | % nociception @ 100 nmol (mice; icv, mouse tail-flick): 48% @ 100 nmol; toxicity preventing A50 determination (mice; icv, mice): toxicity; IC50 [4]: 48.4 ± 8.65 nM
CN1CC[C@]23c4c5ccc(O)c4O[C@H]2[C@@H](O)C=C[C@H]3[C@H]1C5 [Morphine, reference compound] | – | – | – | – | – | – | – | yes | – | – | A50 (mice; icv, mouse tail-flick): 4.2 nmol
C=CCN1CC[C@]23c4c5ccc(O)c4O[C@H]2c2ncc(-c4ccc(Cl)cc4)cc2C[C@@]3(O)[C@H]1C5 [7a, 17-(Allyl)-6,7-didehydro-3,14-dihydroxy-4,5α-epoxy-5′-(4-chlorophenyl)pyrido[2′,3′:6,7]morphinan] | – | 168 to 172 °C | 8.2 ± 0.07 | – | – | – | – | – | – | – | reduction in affinity at the δ site compared to 2c (opioid δ receptor; N-allyl vs N-CPM): 4 fold
COc1ccc2c3c1O[C@H]1c4ncccc4C[C@@]4(O)[C@@H](C2)N(C)CC[C@]314 [7m, 6,7-Didehydro-4,5α-epoxy-14-hydroxy-3-methoxy-17-methylpyrido[2′,3′:6,7]morphinan] | – | 210 to 212 °C | 143 ± 9 | – | – | – | – | – | – | – | –
CN1CC[C@]23c4c5ccc(O)c4O[C@H]2c2ncc(-c4ccc(Cl)cc4Cl)cc2C[C@H]3[C@H]1C5 [7k, 5′-(2,4-Dichlorophenyl)-6,7-didehydro-4,5α-epoxy-3-hydroxy-17-methylpyrido[2′,3′:6,7]morphinan] | 51 ± 5 | 198 to 200 °C | 1.1 | > 1000 | 1.08 ± 0.11 | 88 | 97 ± 4 | – | 366 | 403 ± 9 | enhancement in binding affinity at the δ receptor relative to 7h (opioid δ receptor): 4 fold; improvement in antagonist potency at the δ receptor relative to 7h (δ receptor [5]): 10 fold; Kb [6]: 5.02 ± 1.56 nM; antagonist activity MVD (δ) Ke ([6]; DPDPE as agonist, 1 μM compound, 30 min preincubation): 5 nM; % nociception @ 60 nmol (mice; icv, 60 nmol, mouse tail-flick): 40% @ 60 nmol^e; factor that prevented determining the A50 value (mice; icv, mouse tail-flick): lack of efficacy; Ki (κ receptor): 308 ± 21 nM
C=CCN1C[C@H](C)N([C@H](c2ccc(C(=O)N(CC)CC)cc2)c2cccc(OC)c2)C[C@H]1C [SNC80, reference compound] | – | – | – | – | – | – | – | – | – | – | EC50 (δ receptor [3]): 758 ± 131 nM; Emax (δ receptor [3]; read-out: agonist activity Emax % δ): 100%
CN1CC[C@]23c4c5ccc(O)c4O[C@H]2c2ncccc2C[C@H]3[C@H]1C5 [7f, 6,7-Didehydro-4,5α-epoxy-3-hydroxy-17-methylpyrido[2′,3′:6,7]morphinan] | 44 ± 1 | 164 to 166 °C | 8 ± 0.8 | > 1000 | 595 ± 48 | 2.0 | 13 ± 0.5 | no | 8 | 66 ± 2 | EC50 (μ receptor [1]): 502 ± 76 nM; % nociception @ 100 nmol (mice; icv, mouse tail-flick): 75% @100 nmol; factor that prevented determining the A50 value (mice; icv, mouse tail-flick): insensitivity to naloxone; IC50 [4]: 152 ± 25.5 nM; blockade of agonist activity in the MVD by antagonists ([4]; naloxone and ICI-174,864): blocked by the nonselective antagonist naloxone but not by the δ selective antagonist ICI-174,864
COc1ccc2c3c1O[C@H]1c4ncc(-c5ccc(Cl)cc5)cc4C[C@@]4(O)[C@@H](C2)N(C)CC[C@]314 [7o, 5′-(4-chlorophenyl)-6,7-didehydro-4,5α-epoxy-14-hydroxy-3-methoxy-17-methyl-pyrido[2′,3′:6,7]morphinan] | – | 112 to 114 °C | 21 ± 2 | – | – | – | – | – | – | – | –
Oc1ccc2c3c1O[C@H]1c4ncc(-c5ccc(Cl)cc5)cc4C[C@H]4[C@@H](C2)N(CC2CC2)CC[C@]314 [7l, 5′-(4-Chlorophenyl)-17-(cyclopropylmethyl)-6,7-didehydro-4,5α-epoxy-3-hydroxypyrido[2′,3′:6,7]morphinan] | – | 178 to 180 °C | 2.6 ± 0.12 | – | 1.56 ± 0.14 | 24 | 62 ± 3 | – | 2.3 | 6 ± 0.3 | Kb [6]: 6 ± 1.33 nM; % nociception @ 300 nmol (mice; icv, 300 nmol, mouse tail-flick): 18% @ 300 nmol; factor that prevented determining the A50 value (mice; icv, mouse tail-flick): lack of efficacy; Ki (κ receptor): 11.2 ± 0.62 nM
COc1ccc2c3c1O[C@H]1c4ncc(-c5ccc(Cl)cc5)cc4C[C@H]4[C@@H](C2)N(CC2CC2)CC[C@]314 [7q, 5′-(4-chlorophenyl)-17-(cyclopropylmethyl)-6,7-didehydro-4,5α-epoxy-3-methoxypyrido[2′,3′:6,7]morphinan] | – | 196 to 198 °C | 41 ± 3 | – | – | – | – | – | – | – | –
CN1CC[C@]23c4c5ccc(O)c4O[C@H]2c2ncccc2C[C@@]3(O)[C@H]1C5 [7b, 6,7-Didehydro-3,14-dihydroxy-4,5α-epoxy-17-methylpyrido[2′,3′:6,7]morphinan] | 40 ± 2 | > 230 °C | 18 ± 1.4 | > 1000 | > 1000 | 0.4 | 7.9 ± 0.23 | yes | 15 | 264 ± 18 | A50 (mice; icv, mouse tail-flick): 67.1 nmol
